System: KRAS patient-derived spheroids with HUVEC/MSC, viability
Assay: Anticancer human tumor 519858-162-T-J1-PDC patient-derived colon adenocarcinoma cell line growth inhibition [KRAS2]
Settings: for IC50: curve of first compound; for viability, T/C: stronger effect = lower value
Method in brief: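 KRAS-mutant tumor cells were grown as spheroids with HUVEC endothelial cells and human MSCs as stroma. Targeted agents were tested alone and with KRAS pathway inhibitors. Doses started at or near clinical Cmax, or 10 microM, descending half-log.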

[1] = second compound 0.1 µM, first compound 0.0316 µM
[2] = second compound 0.1 µM, first compound 0.1 µM
[3] = second compound 0.316 µM, first compound 0.0316 µM
[4] = second compound 0.316 µM, first compound 0.1 µM
[5] = second compound 1 µM, first compound 0.0316 µM
[6] = second compound 1 µM, first compound 0.1 µM
[7] = second compound 3.16 µM, first compound 0.0316 µM
[8] = second compound 3.16 µM, first compound 0.1 µM
[9] = second compound 10 µM, first compound 0.0316 µM
[10] = second compound 10 µM, first compound 0.1 µM
[11] = second compound 0.1 µM, first compound 0.316 µM
[12] = second compound 0.1 µM, first compound 1 µM
[13] = second compound 0.1 µM, first compound 3.16 µM
[14] = second compound 0.1 µM, first compound 10 µM
[15] = second compound 0.316 µM, first compound 0.316 µM
[16] = second compound 0.316 µM, first compound 1 µM
[17] = second compound 0.316 µM, first compound 3.16 µM
[18] = second compound 0.316 µM, first compound 10 µM
[19] = second compound 1 µM, first compound 0.316 µM
[20] = second compound 1 µM, first compound 1 µM
[21] = second compound 1 µM, first compound 3.16 µM
[22] = second compound 1 µM, first compound 10 µM
[23] = second compound 3.16 µM, first compound 0.316 µM
[24] = second compound 3.16 µM, first compound 1 µM
[25] = second compound 3.16 µM, first compound 3.16 µM
[26] = second compound 3.16 µM, first compound 10 µM
[27] = second compound 10 µM, first compound 0.316 µM
[28] = second compound 10 µM, first compound 1 µM
[29] = second compound 10 µM, first compound 3.16 µM
[30] = second compound 10 µM, first compound 10 µM
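Note: compound exposure lasted seven days before readout.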
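Throughout, for viability, T/C: 100% = DMSO vehicle control viability.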

Cn1ncnc1[C@H]1c2n[nH]c(=O)c3cc(F)cc(c23)N[C@@H]1c1ccc(F)cc1 + CNCc1ccccc1-c1csc(C(C)Nc2nc(C)nc3cc(OC)c(OC)cc23)c1
IC50 (second compound 0.1 µM): > 0.1 µM | IC50 (second compound 0.316 µM): > 0.1 µM | IC50 (second compound 1 µM): > 0.1 µM | IC50 (second compound 3.16 µM): 0.0711 µM | IC50 (second compound 10 µM): < 0.000316 µM | viability, T/C (second compound 0.1 µM, first compound 0.000316 µM): 82.2% | viability, T/C (second compound 0.1 µM, first compound 0.001 µM): 95.5% | viability, T/C (second compound 0.1 µM, first compound 0.00316 µM): 96.5% | viability, T/C (second compound 0.1 µM, first compound 0.01 µM): 71.5% | viability, T/C [1]: 95.4% | viability, T/C [2]: 98.6% | viability, T/C (second compound 0.316 µM, first compound 0.000316 µM): 86.3% | viability, T/C (second compound 0.316 µM, first compound 0.001 µM): 94.7% | viability, T/C (second compound 0.316 µM, first compound 0.00316 µM): 101% | viability, T/C (second compound 0.316 µM, first compound 0.01 µM): 112% | viability, T/C [3]: 103% | viability, T/C [4]: 89.7% | viability, T/C (second compound 1 µM, first compound 0.000316 µM): 72% | viability, T/C (second compound 1 µM, first compound 0.001 µM): 98.8% | viability, T/C (second compound 1 µM, first compound 0.00316 µM): 97.7% | viability, T/C (second compound 1 µM, first compound 0.01 µM): 63.9% | viability, T/C [5]: 78.3% | viability, T/C [6]: 102% | viability, T/C (second compound 3.16 µM, first compound 0.000316 µM): 49.7% | viability, T/C (second compound 3.16 µM, first compound 0.001 µM): 58.7% | viability, T/C (second compound 3.16 µM, first compound 0.00316 µM): 73.8% | viability, T/C (second compound 3.16 µM, first compound 0.01 µM): 56.7% | viability, T/C [7]: 54.2% | viability, T/C [8]: 48.3% | viability, T/C (second compound 10 µM, first compound 0.000316 µM): 0.66% | viability, T/C (second compound 10 µM, first compound 0.001 µM): 0.41% | viability, T/C (second compound 10 µM, first compound 0.00316 µM): 0.4% | viability, T/C (second compound 10 µM, first compound 0.01 µM): 1.18% | viability, T/C [9]: 0.36% | viability, T/C [10]: 0.51%

O=C(c1cc(Cc2n[nH]c(=O)c3ccccc23)ccc1F)N1CCN(C(=O)C2CC2)CC1 + CC1OCC2(CCN(c3cnc(Sc4ccnc(N)c4Cl)c(N)n3)CC2)C1N
IC50 (second compound 0.1 µM): > 10 µM | IC50 (second compound 0.316 µM): > 10 µM | IC50 (second compound 1 µM): > 10 µM | IC50 (second compound 3.16 µM): > 10 µM | IC50 (second compound 10 µM): > 10 µM | viability, T/C [1]: 105% | viability, T/C [2]: 76.6% | viability, T/C [11]: 80.4% | viability, T/C [12]: 87.1% | viability, T/C [13]: 98.5% | viability, T/C [14]: 76.4% | viability, T/C [3]: 83.7% | viability, T/C [4]: 100% | viability, T/C [15]: 67.7% | viability, T/C [16]: 86.6% | viability, T/C [17]: 78.1% | viability, T/C [18]: 95.7% | viability, T/C [5]: 100% | viability, T/C [6]: 81.7% | viability, T/C [19]: 68.3% | viability, T/C [20]: 66.9% | viability, T/C [21]: 66.8% | viability, T/C [22]: 76.6% | viability, T/C [7]: 67.5% | viability, T/C [8]: 82.2% | viability, T/C [23]: 70.8% | viability, T/C [24]: 57.1% | viability, T/C [25]: 83.7% | viability, T/C [26]: 98.7% | viability, T/C [9]: 91.3% | viability, T/C [10]: 75.1% | viability, T/C [27]: 66.7% | viability, T/C [28]: 57.9% | viability, T/C [29]: 73% | viability, T/C [30]: 65.8%

COc1cc2nccc(Oc3ccc(NC(=O)C4(C(=O)Nc5ccc(F)cc5)CC4)cc3)c2cc1OC + C=CC(=O)N1CCN(c2nc(=O)n(-c3c(C)ccnc3C(C)C)c3nc(-c4c(O)cccc4F)c(F)cc23)C(C)C1
IC50 (second compound 0.1 µM): > 10 µM | IC50 (second compound 0.316 µM): > 10 µM | IC50 (second compound 1 µM): > 10 µM | IC50 (second compound 3.16 µM): > 10 µM | IC50 (second compound 10 µM): > 10 µM | viability, T/C [1]: 77.8% | viability, T/C [2]: 91.2% | viability, T/C [11]: 93.5% | viability, T/C [12]: 93.6% | viability, T/C [13]: 71.8% | viability, T/C [14]: 185% | viability, T/C [3]: 97.1% | viability, T/C [4]: 99% | viability, T/C [15]: 92.3% | viability, T/C [16]: 86.6% | viability, T/C [17]: 84.8% | viability, T/C [18]: 135% | viability, T/C [5]: 91.5% | viability, T/C [6]: 87.7% | viability, T/C [19]: 91.7% | viability, T/C [20]: 98.7% | viability, T/C [21]: 105% | viability, T/C [22]: 134% | viability, T/C [7]: 88.2% | viability, T/C [8]: 73.3% | viability, T/C [23]: 69.8% | viability, T/C [24]: 81% | viability, T/C [25]: 74.2% | viability, T/C [26]: 109% | viability, T/C [9]: 94.7% | viability, T/C [10]: 89.5% | viability, T/C [27]: 75.6% | viability, T/C [28]: 68.2% | viability, T/C [29]: 61.9% | viability, T/C [30]: 131%

Cn1nccc1Nc1nccc(-c2cc3c(s2)C(C)(C)N(CCN2CCOCC2)C3=O)n1 + CNCc1ccccc1-c1csc(C(C)Nc2nc(C)nc3cc(OC)c(OC)cc23)c1
IC50 (second compound 0.1 µM): 3.24 µM | IC50 (second compound 0.316 µM): 4.47 µM | IC50 (second compound 1 µM): 1.09 µM | IC50 (second compound 3.16 µM): < 0.0316 µM | IC50 (second compound 10 µM): < 0.0316 µM | viability, T/C [1]: 102% | viability, T/C [2]: 90.2% | viability, T/C [11]: 74.2% | viability, T/C [12]: 63% | viability, T/C [13]: 55.7% | viability, T/C [14]: 33.5% | viability, T/C [3]: 90.3% | viability, T/C [4]: 77.5% | viability, T/C [15]: 68.2% | viability, T/C [16]: 78.5% | viability, T/C [17]: 49.2% | viability, T/C [18]: 39.6% | viability, T/C [5]: 79.5% | viability, T/C [6]: 71% | viability, T/C [19]: 74.3% | viability, T/C [20]: 50.6% | viability, T/C [21]: 31.9% | viability, T/C [22]: 25.9% | viability, T/C [7]: 38.9% | viability, T/C [8]: 48% | viability, T/C [23]: 29.8% | viability, T/C [24]: 36.6% | viability, T/C [25]: 20.8% | viability, T/C [26]: 21.2% | viability, T/C [9]: 2.36% | viability, T/C [10]: 0.52% | viability, T/C [27]: 0.35% | viability, T/C [28]: 0.39% | viability, T/C [29]: 0.71% | viability, T/C [30]: 0.65%

COc1cc(Nc2ncc3c(n2)-c2ccc(Cl)cc2C(c2c(F)cccc2OC)=NC3)ccc1C(=O)O + C=CC(=O)N1CCN(c2nc(=O)n(-c3c(C)ccnc3C(C)C)c3nc(-c4c(O)cccc4F)c(F)cc23)C(C)C1
IC50 (second compound 0.1 µM): > 10 µM | IC50 (second compound 0.316 µM): > 10 µM | IC50 (second compound 1 µM): > 10 µM | IC50 (second compound 3.16 µM): > 10 µM | IC50 (second compound 10 µM): > 10 µM | viability, T/C [1]: 104% | viability, T/C [2]: 62.4% | viability, T/C [11]: 89.9% | viability, T/C [12]: 102% | viability, T/C [13]: 104% | viability, T/C [14]: 120% | viability, T/C [3]: 80% | viability, T/C [4]: 91.2% | viability, T/C [15]: 74.1% | viability, T/C [16]: 53.3% | viability, T/C [17]: 89.9% | viability, T/C [18]: 125% | viability, T/C [5]: 97.2% | viability, T/C [6]: 94.4% | viability, T/C [19]: 91.5% | viability, T/C [20]: 85.5% | viability, T/C [21]: 83% | viability, T/C [22]: 125% | viability, T/C [7]: 134% | viability, T/C [8]: 74.8% | viability, T/C [23]: 57.1% | viability, T/C [24]: 90.1% | viability, T/C [25]: 71.3% | viability, T/C [26]: 91.1% | viability, T/C [9]: 95.1% | viability, T/C [10]: 74.1% | viability, T/C [27]: 83% | viability, T/C [28]: 71% | viability, T/C [29]: 73% | viability, T/C [30]: 103%

CC1OCC2(CCN(c3cnc(Sc4ccnc(N)c4Cl)c(N)n3)CC2)C1N (stereo not given) + C=CC(=O)N1CCN(c2nc(=O)n(-c3c(C)ccnc3C(C)C)c3nc(-c4c(O)cccc4F)c(F)cc23)C(C)C1
IC50 (second compound 0.1 µM): 7.23 µM | IC50 (second compound 0.316 µM): > 10 µM | IC50 (second compound 1 µM): 3.16 µM | IC50 (second compound 3.16 µM): > 10 µM | IC50 (second compound 10 µM): 3.92 µM | viability, T/C [1]: 94.2% | viability, T/C [2]: 77.3% | viability, T/C [11]: 68.5% | viability, T/C [12]: 80.4% | viability, T/C [13]: 63.1% | viability, T/C [14]: 43.7% | viability, T/C [3]: 90.6% | viability, T/C [4]: 76% | viability, T/C [15]: 73.1% | viability, T/C [16]: 59.9% | viability, T/C [17]: 79.6% | viability, T/C [18]: 63.3% | viability, T/C [5]: 81.6% | viability, T/C [6]: 68.6% | viability, T/C [19]: 84.3% | viability, T/C [20]: 50.3% | viability, T/C [21]: 54% | viability, T/C [22]: 49.2% | viability, T/C [7]: 67.2% | viability, T/C [8]: 101% | viability, T/C [23]: 75.7% | viability, T/C [24]: 62.5% | viability, T/C [25]: 53.3% | viability, T/C [26]: 65.4% | viability, T/C [9]: 56% | viability, T/C [10]: 73% | viability, T/C [27]: 72.3% | viability, T/C [28]: 55.6% | viability, T/C [29]: 56% | viability, T/C [30]: 31.2%

From PubChem BioAssay AID1963872 (Molecular Pharmacology Branch, DTP, NCI, 2024)
